Measurements: ChEMBL document CHEMBL3872207, “Aromatic heterocyclic esters of podophyllotoxin exert anti-MDR activity in human leukemia K562/ADR cells via ROS/MAPK signaling pathways” (Eur J Med Chem, 2016)

Experiments:
[1] = Antiproliferative activity against human K562/ADR cells measured after 72 hrs by CCK8 assay; format: functional, cell-based
[2] = Antiproliferative activity against human K562 cells measured after 72 hrs by CCK8 assay; format: functional, cell-based; settings: K562, 72 h
K562 = assay: Resistance index, ratio of IC50 for human K562/ADR cells to IC50 for human K562 cells; format: functional
[3] = Potency index, ratio of doxorubicin IC50 to compound IC50 for antiproliferative activity against human K562/ADR cells; format: functional
[4] = Potency index, ratio of etoposide IC50 to compound IC50 for antiproliferative activity against human K562/ADR cells; format: functional

Compound	IC50 [1] [nM]	IC50 [2] [nM]	Ratio IC50 (K562)	Ratio IC50 [3]	Ratio IC50 [4]
COc1cc([C@@H]2c3cc4c(cc3[C@H](OC(=O)c3nn(C)c5ccccc35)[C@H]3COC(=O)[C@H]23)OCO4)cc(OC)c1OC	115	47	2.446	–	–
COc1cc([C@@H]2c3cc4c(cc3[C@H](OC(=O)c3cscn3)[C@H]3COC(=O)[C@H]23)OCO4)cc(OC)c1OC	74	35	2.114	–	–
COc1cc([C@@H]2c3cc4c(cc3[C@H](OC(=O)c3cn(C)cn3)[C@H]3COC(=O)[C@H]23)OCO4)cc(OC)c1OC	858	79	10.86	–	–
COc1cc([C@@H]2c3cc4c(cc3[C@H](OC(=O)c3ccc5nc(C)ccc5c3)[C@H]3COC(=O)[C@H]23)OCO4)cc(OC)c1OC	61	64	0.953	–	–
COc1cc([C@@H]2c3cc4c(cc3[C@H](OC(=O)c3cc(C)on3)[C@H]3COC(=O)[C@H]23)OCO4)cc(OC)c1OC	52	25	2.08	–	–
COc1cc([C@@H]2c3cc4c(cc3[C@H](OC(=O)c3cnn(C)c3)[C@H]3COC(=O)[C@H]23)OCO4)cc(OC)c1OC	139	52	2.673	–	–
COc1cccc2c1C(=O)c1c(O)c3c(c(O)c1C2=O)C[C@@](O)(C(=O)CO)C[C@@H]3O[C@H]1C[C@H](N)[C@H](O)[C@H](C)O1 [DOXORUBICIN]	18800	220	85.359	–	–
COc1cc([C@@H]2c3cc4c(cc3[C@H](OC(=O)c3nccc5ccccc35)[C@H]3COC(=O)[C@H]23)OCO4)cc(OC)c1OC	177	64	2.765	–	–
COc1cc([C@@H]2c3cc4c(cc3[C@H](OC(=O)c3cc5ccccc5s3)[C@H]3COC(=O)[C@H]23)OCO4)cc(OC)c1OC	466	184	2.532	–	–
COc1cc([C@@H]2c3cc4c(cc3[C@@H](O[C@@H]3O[C@@H]5CO[C@@H](C)O[C@H]5[C@H](O)[C@H]3O)[C@H]3COC(=O)[C@H]23)OCO4)cc(OC)c1O [ETOPOSIDE]	2210	345	6.408	–	–
COc1cc([C@@H]2c3cc4c(cc3[C@H](OC(=O)c3cnc5ccccc5n3)[C@H]3COC(=O)[C@H]23)OCO4)cc(OC)c1OC	34	22	1.545	552.323	65.029
COc1cc([C@@H]2c3cc4c(cc3[C@H](OC(=O)c3cn(C5CC5)c5cc(Cl)c(F)cc5c3=O)[C@H]3COC(=O)[C@H]23)OCO4)cc(OC)c1OC	550	305	1.803	–	–
